Test results taken from ChEMBL document CHEMBL3352364 (Bioorg Med Chem Lett, 2014).

Legend:
Rattus norvegicus [1] = species on record: Rattus norvegicus; conditions: in vivo, ip
Description: Toxicity in ip dosed Sprague-Dawley rat assessed as catalepsy by Bar test

Rattus norvegicus [2] = species on record: Rattus norvegicus; conditions: in vivo, ip; remark: listed apart in the source
Description: Toxicity in ip dosed Sprague-Dawley rat assessed as catalepsy by crossed-legs position test

Row | Compound | MED (Rattus norvegicus [1]) | MED (Rattus norvegicus [2])
1 | OC1(c2ccc(Cl)cc2)CC2CCC(C1)N2CCCSc1ccc(F)cc1 (centres undefined) | 0.578 mg/kg | 0.964 mg/kg
2 | OC1(c2ccc(Cl)cc2)CC2CCC(C1)N2CCCSc1cccc(F)c1 (centres undefined) | 12.7 mg/kg | 12.7 mg/kg
